# Data published in patent publication US11026963B2, “Senolytic compositions and uses thereof” (Rubedo Life Sciences, Inc., priority 2018, dated 2021).
# Tested on: Normal human fibroblasts (IMR90)
# Experiment: Compound toxicity towards normal proliferative, senescent or quiescent fibroblasts (XTT cell viability assay)
# Type: cell-based
# Conditions: IC50 against normal, proliferating cells divided by IC50 versus senescent (doxorubicin-induced) cells, three days treatment
# Method: Normal human fibroblasts (IMR90) and patient-derived β-galactosidase (GLB1) or α-fucosidase (FUCA1) deficient cells were used to determine change in cell viability after exposure to compound. Cells were cultured with DMEM and 10% heat inactivated FBS under a controlled atmosphere of 5% carbon dioxide and 5% oxygen, […] and confirmed by the absence of senescence associated β-galactosidase (SA-β-Gal) staining and the capacity to re-enter the cell cycle. Senescence was induced by treatment with doxorubicin and confirmed by SA-β-Gal positive staining and the lack of DNA replication. Cells were treated with compound for three days. Cell viability was determined by mitochondrial dehydrogenase activity (XTT assay. Cayman Chemical) at ten concentrations of the tested compound. To generate dose-response curves, data was fitted to a four-parameter Hill function and the IC50 was determined at Y=0.5 viability. The senolytic index (S.I.) for each compound was determined by dividing the IC50 against normal, proliferating cells by the IC50 versus senescent cells. Senolytic index data is shown in Table 1 with compounds having S.I.<1 (−), S.I>1 (+), S.I.>5 (++) and S.I>10 (+++).
row,SMILES,Senolytic Index (S.I.)
1,CC(C)c1cc(C(=O)N2Cc3ccc(CN4CCN(C)CC4)cc3C2)c(O[C@@H]2O[C@H](CO)[C@H](O)[C@H](O)[C@H]2O)cc1O [(47)],− (S.I.<1 (−))
2,"CC(C)c1cc(-c2n[nH]c(=O)n2-c2ccc3c(ccn3C)c2)c(O)cc1O[C@@H]1O[C@H](CO)[C@H](O)[C@H](O)[C@H]1O (single isomer, unassigned) [(127)]",+ (S.I>1 (+))
3,"CC(=O)OC[C@H]1O[C@@H](ONC(=O)c2cnc(N3CCC(CNCc4cn(C)c5ccccc45)CC3)nc2)[C@H](OC(C)=O)[C@@H](OC(C)=O)[C@H]1OC(C)=O [(114), (2R,3S,4S,5R,6S)-2-(Acetoxymethyl)-6-((2-(4-((((1-methyl-1H-indol-3-yl)methyl)amino)methyl)piperidin-1-yl)pyrimidine-5-carboxamido)oxy)tetrahydro-2H-pyran-3,4,5-triyl Triacetate]",+ (S.I>1 (+))
4,"CCNC(=O)c1noc(-c2cc(C(C)C)c(O)cc2O[C@@H]2O[C@H](CO)[C@H](O)[C@H](O)[C@H]2O)c1-c1ccc(CN2CCOCC2)cc1 (single isomer, unassigned) [(49)]",+ (S.I>1 (+))
5,"Cc1[nH]c2ccccc2c1CCNCc1ccc(/C=C/C(=O)NO[C@@H]2O[C@@H](C)[C@@H](OC(=O)C(C)C)[C@@H](OC(=O)C(C)C)[C@@H]2OC(=O)C(C)C)cc1 [(122), (2S,3R,4R,5S,6S)-2-Methyl-6-(((E)-3-(4-(((2-(2-methyl-1H-indol-3-yl)ethyl)amino)methyl)phenyl)acrylamido)oxy)tetrahydro-2H-pyran-3,4,5-triyl tris(2-methylpropanoate)]",+ (S.I>1 (+))
6,"C[C@@H]1O[C@@H](ONC(=O)c2cnc(N3CCC(CNCc4cn(C)c5ccccc45)CC3)nc2)[C@@H](O)[C@H](O)[C@@H]1O [(120), 2-(4-((((l-Methyl-1H-indol-3-yl)methyl)amino)methyl)piperidin-1-yl)-N-(((2S,3S,4R,5S,6S)-3,4,5-trihydroxy-6-methyltetrahydro-2H-pyran-2-yl)oxy)pyrimidine-5-carboxamide]",+ (S.I>1 (+))
7,"COc1ccc(-c2nc(N3CCOCC3)c3sc(CN(C)c4ncc(C(=O)NO[C@@H]5O[C@H](COC(C)=O)[C@H](OC(C)=O)[C@H](OC(C)=O)[C@H]5OC(C)=O)cn4)cc3n2)cn1 [(123), (2R,3S,4S,5R,6S)-2-(Acetoxymethyl)-6-((2-(((2-(6-methoxypyridin-3-yl)-4-morpholinothieno[3,2-d]pyrimidin-6-yl)methyl)(methyl)amino)pyrimidine-5-carboxamido)oxy)tetrahydro-2H-pyran-3,4,5-triyl Triacetate]",+ (S.I>1 (+))
8,"COc1ccc(-c2nc(N3CCOCC3)c3sc(CN(C)c4ncc(C(=O)NO[C@@H]5O[C@@H](C)[C@@H](O)[C@@H](O)[C@@H]5O)cn4)cc3n2)cn1 [(126), 2-(((2-(6-methoxypyridin-3-yl)-4-morpholinothieno[3,2-d]pyrimidin-6-yl)methyl)(methyl)amino)-N-(((2S,3S,4R,5S,6S)-3,4,5-trihydroxy-6-methyltetrahydro-2H-pyran-2-yl)oxy)pyrimidine-5-carboxamide]",− (S.I.<1 (−))
9,"Cn1cc(CNCC2CCN(c3ncc(C(=O)NO[C@@H]4O[C@H](CO)[C@H](O)[C@H](O)[C@H]4O)cn3)CC2)c2ccccc21 [(112), 2-(4-((((1-methyl-1H-indol-3-yl)methyl)amino)methyl)piperidin-1-yl)-N-(((2S,3R,4S,5R,6R)-3,4,5-trihydroxy-6-(hydroxymethyl)tetrahydro-2H-pyran-2-yl)oxy)pyrimidine-5-carboxamide]",+ (S.I>1 (+))
10,"CC(C)c1cc(C(=O)N2Cc3ccc(CN4CCN(C)CC4)cc3C2)c(O)cc1O[C@@H]1O[C@H](CO)[C@H](O)[C@H](O)[C@H]1O (single isomer, unassigned) [(46)]",− (S.I.<1 (−))
